For this test, the system named is H3K27me3 at promoters of Wnt and pluripotency genes. Description: ChIP-sequencing of H3K27me3 in MYC-CTNNB1 organoids. The format is cell-based, mouse. Conditions: WNTinib 1 μM, 24 hours. The source says:
Importantly, this was not seen in the MYC-Tp53 model organoids (FIG. 10C).

On to `CNC(=O)c1cc(Oc2ccc(NC(=O)Nc3ccc(C(F)(F)C(F)(F)F)cc3)c(F)c2)ccn1` [WNTinib, 4-(3-fluoro-4-(3-(4-(perfluoroethyl)phenyl)ureido)phenoxy)-N-methylpicolinamide], for which the “H3K27me3 at promoters of genes of Wnt and pluripotency pathways” value is listed as “upregulated the tri-methylation of lysine 27 on histone H3 (H3K27me3)”.

The values are drawn from patent US20230404985A1, “METHODS OF TREATING TUMORS AND CANCERS HAVING DYSREGULATED WNT SIGNALING PATHWAYS” (ICAHN SCHOOL OF MEDICINE AT MOUNT SINAI, priority 2020, published 2023).
